Results reported in ChEMBL document CHEMBL5226302, “Small-Molecule Inhibitors Targeting the Canonical WNT Signaling Pathway for the Treatment of Cancer” (J Med Chem, 2021).
Converted amounts (≈) assume the structure as drawn.

Tests used:
[1] = Inhibition of Wnt pathway (unknown origin); set-up: species or system Homo sapiens
[2] = biological target: Poly [ADP-ribose] polymerase 2 (Homo sapiens, UniProt Q9UGN5); assay: Inhibition of PARP2 (unknown origin) using NAD as substrate incubated for 1 min
Poly [ADP-ribose] polymerase 2, sequence (Q9UGN5 whole entry): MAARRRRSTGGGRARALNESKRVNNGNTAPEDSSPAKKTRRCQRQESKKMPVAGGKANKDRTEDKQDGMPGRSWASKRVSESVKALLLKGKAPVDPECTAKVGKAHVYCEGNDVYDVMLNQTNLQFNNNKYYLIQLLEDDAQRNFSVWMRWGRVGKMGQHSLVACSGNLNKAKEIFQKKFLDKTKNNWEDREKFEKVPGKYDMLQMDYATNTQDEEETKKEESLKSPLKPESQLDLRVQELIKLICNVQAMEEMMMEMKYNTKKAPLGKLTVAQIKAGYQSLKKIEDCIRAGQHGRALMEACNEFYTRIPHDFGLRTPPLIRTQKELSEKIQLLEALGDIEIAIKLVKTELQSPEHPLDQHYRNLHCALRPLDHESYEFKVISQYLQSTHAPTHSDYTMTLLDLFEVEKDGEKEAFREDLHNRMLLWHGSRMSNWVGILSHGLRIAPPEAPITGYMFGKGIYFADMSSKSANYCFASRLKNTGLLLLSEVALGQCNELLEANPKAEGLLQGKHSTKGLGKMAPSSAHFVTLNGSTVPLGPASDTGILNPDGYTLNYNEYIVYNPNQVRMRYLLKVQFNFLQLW

[3] = biological target: Poly [ADP-ribose] polymerase 1 (Homo sapiens, UniProt P09874); assay: Inhibition of human recombinant PARP1 incubated for 30 mins in the presence of NAD
Poly [ADP-ribose] polymerase 1, sequence (P09874 whole entry, the tested form may be a part): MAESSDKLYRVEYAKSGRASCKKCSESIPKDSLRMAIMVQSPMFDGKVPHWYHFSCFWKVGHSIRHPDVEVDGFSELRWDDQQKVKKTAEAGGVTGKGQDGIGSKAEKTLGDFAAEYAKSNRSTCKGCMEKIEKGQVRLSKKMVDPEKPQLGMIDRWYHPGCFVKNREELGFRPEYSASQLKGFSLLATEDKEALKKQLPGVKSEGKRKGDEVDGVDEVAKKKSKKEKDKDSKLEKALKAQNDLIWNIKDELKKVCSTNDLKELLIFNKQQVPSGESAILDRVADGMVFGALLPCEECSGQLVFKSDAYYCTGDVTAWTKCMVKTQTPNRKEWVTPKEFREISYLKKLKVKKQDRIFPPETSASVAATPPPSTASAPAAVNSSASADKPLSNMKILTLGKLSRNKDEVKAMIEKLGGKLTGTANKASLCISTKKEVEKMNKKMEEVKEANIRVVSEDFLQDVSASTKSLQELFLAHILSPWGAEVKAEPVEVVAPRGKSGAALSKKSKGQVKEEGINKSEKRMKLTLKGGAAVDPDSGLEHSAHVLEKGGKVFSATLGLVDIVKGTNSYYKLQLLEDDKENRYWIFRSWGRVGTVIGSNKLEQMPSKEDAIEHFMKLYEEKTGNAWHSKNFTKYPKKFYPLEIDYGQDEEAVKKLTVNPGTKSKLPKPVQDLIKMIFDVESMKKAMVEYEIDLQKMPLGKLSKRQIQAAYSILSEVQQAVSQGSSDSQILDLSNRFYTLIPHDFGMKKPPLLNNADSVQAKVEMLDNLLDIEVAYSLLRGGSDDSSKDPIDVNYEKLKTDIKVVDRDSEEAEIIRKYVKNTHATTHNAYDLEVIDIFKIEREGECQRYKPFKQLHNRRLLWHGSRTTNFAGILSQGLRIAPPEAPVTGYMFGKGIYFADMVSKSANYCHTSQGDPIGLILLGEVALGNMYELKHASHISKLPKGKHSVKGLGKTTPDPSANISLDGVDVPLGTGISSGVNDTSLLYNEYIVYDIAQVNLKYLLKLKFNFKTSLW

[4] = biological target: T1, Poly [ADP-ribose] polymerase tankyrase-2 (Homo sapiens, UniProt Q9H2K2); assay: Inhibition of human TNKS2 (873 to 1162 residues) measured after 15 hrs in presence of NAD+ by fluorescence assay
T1 sequence (Q9H2K2 whole entry): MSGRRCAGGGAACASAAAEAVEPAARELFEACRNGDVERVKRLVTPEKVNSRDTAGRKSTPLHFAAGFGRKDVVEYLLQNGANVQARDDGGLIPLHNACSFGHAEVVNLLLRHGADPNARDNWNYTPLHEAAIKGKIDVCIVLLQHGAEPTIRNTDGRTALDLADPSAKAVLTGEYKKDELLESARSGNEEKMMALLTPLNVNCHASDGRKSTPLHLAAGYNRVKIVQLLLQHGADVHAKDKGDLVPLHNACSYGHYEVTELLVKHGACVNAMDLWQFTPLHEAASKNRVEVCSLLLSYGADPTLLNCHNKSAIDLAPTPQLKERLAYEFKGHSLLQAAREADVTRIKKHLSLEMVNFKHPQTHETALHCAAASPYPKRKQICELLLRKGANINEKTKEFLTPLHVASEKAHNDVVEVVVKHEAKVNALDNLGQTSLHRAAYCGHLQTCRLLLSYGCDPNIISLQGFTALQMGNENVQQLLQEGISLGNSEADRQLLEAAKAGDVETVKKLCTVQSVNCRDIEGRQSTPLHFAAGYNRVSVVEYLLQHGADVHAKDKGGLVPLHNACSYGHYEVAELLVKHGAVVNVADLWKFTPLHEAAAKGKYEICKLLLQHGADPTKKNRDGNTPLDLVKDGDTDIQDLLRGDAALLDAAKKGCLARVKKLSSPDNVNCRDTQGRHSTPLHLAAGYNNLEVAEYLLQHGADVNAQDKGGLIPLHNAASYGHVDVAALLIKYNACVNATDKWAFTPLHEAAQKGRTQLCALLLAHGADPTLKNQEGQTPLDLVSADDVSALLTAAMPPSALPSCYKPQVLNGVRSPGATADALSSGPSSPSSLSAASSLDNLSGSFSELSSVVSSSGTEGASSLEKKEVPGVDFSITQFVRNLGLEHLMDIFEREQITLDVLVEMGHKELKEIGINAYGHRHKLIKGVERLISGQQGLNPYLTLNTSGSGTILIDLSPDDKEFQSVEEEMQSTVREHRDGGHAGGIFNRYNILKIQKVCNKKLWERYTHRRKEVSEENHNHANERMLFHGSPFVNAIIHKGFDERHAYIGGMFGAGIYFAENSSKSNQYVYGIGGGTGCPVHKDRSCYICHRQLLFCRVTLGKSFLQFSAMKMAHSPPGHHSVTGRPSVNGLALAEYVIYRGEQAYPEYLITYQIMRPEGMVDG

[5] = biological target: T2, Poly [ADP-ribose] polymerase tankyrase-1 (Homo sapiens, UniProt O95271); assay: Inhibition of human TNKS1 (1030 to 1317 residues) measured after 20 hrs
T2 sequence (O95271 whole entry): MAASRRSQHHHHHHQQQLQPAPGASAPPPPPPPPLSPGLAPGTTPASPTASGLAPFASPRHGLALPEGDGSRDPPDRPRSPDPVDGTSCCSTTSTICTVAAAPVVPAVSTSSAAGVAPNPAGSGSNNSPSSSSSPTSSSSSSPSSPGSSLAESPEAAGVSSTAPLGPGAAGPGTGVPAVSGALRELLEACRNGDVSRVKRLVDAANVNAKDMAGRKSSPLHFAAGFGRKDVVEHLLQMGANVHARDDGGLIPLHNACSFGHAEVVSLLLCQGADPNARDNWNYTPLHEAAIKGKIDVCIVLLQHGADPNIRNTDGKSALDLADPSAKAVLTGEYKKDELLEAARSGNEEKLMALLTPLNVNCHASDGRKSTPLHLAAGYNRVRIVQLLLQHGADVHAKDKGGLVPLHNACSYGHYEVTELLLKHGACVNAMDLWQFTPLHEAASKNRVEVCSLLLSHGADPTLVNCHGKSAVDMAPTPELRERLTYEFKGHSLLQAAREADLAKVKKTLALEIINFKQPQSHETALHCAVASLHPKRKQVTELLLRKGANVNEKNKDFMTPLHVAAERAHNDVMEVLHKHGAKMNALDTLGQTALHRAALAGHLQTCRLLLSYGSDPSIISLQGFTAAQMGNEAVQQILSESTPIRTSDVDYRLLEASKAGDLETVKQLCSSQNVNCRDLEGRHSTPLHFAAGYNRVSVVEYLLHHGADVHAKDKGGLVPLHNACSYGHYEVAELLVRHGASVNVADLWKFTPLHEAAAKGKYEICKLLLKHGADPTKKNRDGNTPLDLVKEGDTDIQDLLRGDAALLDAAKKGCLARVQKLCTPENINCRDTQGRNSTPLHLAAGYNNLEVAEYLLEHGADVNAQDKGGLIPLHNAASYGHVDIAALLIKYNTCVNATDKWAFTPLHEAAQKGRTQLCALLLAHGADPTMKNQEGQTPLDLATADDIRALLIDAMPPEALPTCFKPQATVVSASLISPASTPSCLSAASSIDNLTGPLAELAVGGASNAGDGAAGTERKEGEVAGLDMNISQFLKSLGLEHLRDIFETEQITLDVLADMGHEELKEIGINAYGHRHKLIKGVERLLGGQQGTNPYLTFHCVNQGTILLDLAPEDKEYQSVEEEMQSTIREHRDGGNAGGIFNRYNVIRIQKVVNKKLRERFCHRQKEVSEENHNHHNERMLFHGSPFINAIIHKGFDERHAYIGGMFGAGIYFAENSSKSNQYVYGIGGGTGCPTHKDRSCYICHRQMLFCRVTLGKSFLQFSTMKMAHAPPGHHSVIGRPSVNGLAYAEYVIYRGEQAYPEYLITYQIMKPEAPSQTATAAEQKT

[6] = Oral bioavailability in rat at 5 mg/kg; assay type: ADME, organism-based; conditions: in vivo
[7] = Oral bioavailability in mouse at 2.5 mg/kg; assay type: ADME, organism-based; conditions: in vivo
[8] = Solubility of the compound at pH 7.4; assay type: physicochemical; conditions: buffer
[9] = In vivo inhibition of MMTV-WNT1 in mouse model assessed as reduction in tumor growth at 1 mg/kg, po administered once daily for 2 weeks; assay type: functional; conditions: 336 h
[10] = In vivo inhibition of MMTV-WNT1 in mouse model assessed as reduction in tumor growth at 3 mg/kg, po administered once daily for 2 weeks; assay type: functional; conditions: 336 h
[11] = Oral bioavailability in dog; assay type: ADME, organism-based, Canis lupus familiaris; conditions: in vivo
[12] = Oral bioavailability in mouse; assay type: ADME, organism-based; conditions: in vivo
[13] = Oral bioavailability in rat at 2 mg/kg; assay type: ADME, organism-based; conditions: in vivo
[14] = In vivo inhibition of MMTV-WNT1 in mouse model assessed as reduction in tumor growth at 0.3 mg/kg, po administered once daily for 2 weeks; assay type: functional; conditions: 336 h
COLO 320 = assay: Antitumor activity against human COLO 320 cells xenografted mouse model assessed as tumor growth inhibition at 300 mg/kg relative to control; assay type: functional; conditions: read-out: TGI
[15] = Oral bioavailability in rat at 30 mg/kg; assay type: ADME, organism-based; conditions: in vivo
MG-63 = assay: Antitumor activity against human MG-63 cells xenografted in osteosarcoma mouse model assessed as tumor growth inhibition at 5 mg/kg relative to control; assay type: functional; conditions: read-out: TGI
[16] = Efflux ratio of apparent permeability in human Caco-2 cells; assay type: ADME, cell-based
cells = conditions: Homo sapiens, COLO 320DM
[17] = Chemical stability of the compound at pH 7.4 measured after 24 hrs; assay type: physicochemical; conditions: buffer, read-out: Stability
[18] = In vivo inhibition of WNT1 in mouse model assessed as reduction in tumor volume by measuring T/C ratio at 1 mg/kg; assay type: functional
[19] = In vivo inhibition of WNT1 in mouse model assessed as reduction in tumor volume by measuring T/C ratio at 3 mg/kg; assay type: functional
[20] = biological target: T1, Poly [ADP-ribose] polymerase tankyrase-2; assay: Binding affinity to TNKS2 (unknown origin) assessed as inhibition constant
[21] = biological target: Catenin beta-1/Transcription factor 7 (Homo sapiens, UniProt P35222+P36402); assay: Inhibition of beta catenin/TCF (unknown origin) by immunoprecipitation method; assay type: protein assay
Catenin beta-1/Transcription factor 7, sequence (P36402 whole entry): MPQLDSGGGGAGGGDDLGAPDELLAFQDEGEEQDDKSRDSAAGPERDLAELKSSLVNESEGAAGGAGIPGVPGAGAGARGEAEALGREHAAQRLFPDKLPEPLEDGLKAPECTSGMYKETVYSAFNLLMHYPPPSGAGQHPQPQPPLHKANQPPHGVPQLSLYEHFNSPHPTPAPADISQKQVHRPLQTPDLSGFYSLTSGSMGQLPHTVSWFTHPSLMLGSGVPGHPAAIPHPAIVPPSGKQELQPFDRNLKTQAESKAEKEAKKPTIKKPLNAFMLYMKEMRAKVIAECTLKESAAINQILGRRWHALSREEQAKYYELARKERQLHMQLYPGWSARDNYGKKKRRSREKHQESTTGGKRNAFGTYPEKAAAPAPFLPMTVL
Catenin beta-1/Transcription factor 7, sequence (P35222 whole entry): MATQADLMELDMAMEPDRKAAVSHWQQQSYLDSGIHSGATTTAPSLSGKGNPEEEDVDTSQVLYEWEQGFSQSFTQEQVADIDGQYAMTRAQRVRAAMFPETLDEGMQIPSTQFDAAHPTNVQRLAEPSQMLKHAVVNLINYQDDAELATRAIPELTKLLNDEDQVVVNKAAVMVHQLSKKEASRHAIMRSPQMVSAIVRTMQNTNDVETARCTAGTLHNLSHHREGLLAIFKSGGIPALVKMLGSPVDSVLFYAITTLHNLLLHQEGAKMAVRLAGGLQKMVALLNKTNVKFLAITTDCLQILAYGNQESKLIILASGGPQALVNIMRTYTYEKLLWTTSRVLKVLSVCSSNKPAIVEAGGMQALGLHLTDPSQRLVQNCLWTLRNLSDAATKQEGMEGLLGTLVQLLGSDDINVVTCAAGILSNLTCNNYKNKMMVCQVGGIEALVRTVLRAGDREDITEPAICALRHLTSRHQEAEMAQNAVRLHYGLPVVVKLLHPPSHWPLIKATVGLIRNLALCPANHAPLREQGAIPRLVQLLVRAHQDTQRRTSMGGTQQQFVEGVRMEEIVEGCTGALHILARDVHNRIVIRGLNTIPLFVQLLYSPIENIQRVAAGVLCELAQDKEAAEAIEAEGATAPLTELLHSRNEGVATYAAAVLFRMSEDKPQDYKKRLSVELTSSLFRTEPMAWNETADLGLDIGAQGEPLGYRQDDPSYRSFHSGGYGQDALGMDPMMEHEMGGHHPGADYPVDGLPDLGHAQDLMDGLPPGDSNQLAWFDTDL

COc1ccc(-n2c(C(=O)NCC(=O)Nc3nc4ccc(OC)cc4s3)nc3ccccc3c2=O)cc1
IC50 [1]: 58 nM

CCCn1c(SCC(=O)Nc2nc3ccc(OC)cc3s2)nnc1-c1ccncc1
IC50 [1]: 12 nM

COc1cccc2c(=O)[nH]c(-c3ccc(C)cc3)cc12
IC50 [2]: > 10000 nM | IC50 [3]: > 10000 nM | IC50 [4]: 5.1 nM | IC50 [5]: 30 nM

COCCNc1cc(C)c(-c2ccc(-c3nc4c(CO)cccc4c(=O)[nH]3)cc2)cn1
bioavailability [6]: 18%

C[C@H](Nc1ccc(-c2ccnn2C)nc1)C(=O)Nc1ccc(-c2cccnc2)cn1
bioavailability [7]: 100% | solubility [8]: 73 µg/mL (≈ 183 µM)

CC(=O)N1CCN(c2ccc(NC(=O)Cc3cnc(-c4ccnc(F)c4)c(C)c3)nc2)CC1
inhibition in vivo at 1 mg/kg [9]: 74% | inhibition in vivo at 3 mg/kg [10]: 84% | bioavailability [11]: 96% | bioavailability [12]: 72% | bioavailability [13]: 72% | IC50 [1]: 0.8 nM | inhibition in vivo at 0.3 mg/kg [14]: 15%

O=c1[nH]c(N2CCC3(CC2)CN(CCO)c2cc(F)cc(F)c23)nc2c1CCCC2
inhibition in vivo at 300 mg/kg (COLO 320): 52% | bioavailability [15]: 60%

O=C(Nc1cccc2cccnc12)c1ccc(N2C(=O)[C@@H]3[C@H](C2=O)[C@@H]2C=C[C@H]3C2)cc1
inhibition in vivo at 5 mg/kg (MG-63): 71%

Cc1cc(N2C[C@@H](C)N[C@@H](C)C2)ncc1-c1ccc(-c2nc3c(ccn3C)c(=O)[nH]2)cc1
efflux ratio [16]: 2.7

NS(=O)(=O)c1ccc(NC(=S)N2CCN(C/C=C/c3ccccc3)CC2)cc1
IC50 (cells): 2000 nM

O=C(COc1ccc(-n2ccnc2)cc1)Nc1ccc(-c2ccccc2)cc1
bioavailability [7]: < 1% | solubility [8]: < 1 µg/mL

Cc1cc(-c2ccc(OC(C)C(=O)Nc3ccc(-c4cnccn4)cn3)cc2)ccn1 (configuration not stated)
remaining at 24 h [17]: 71% | IC50 [1]: 0.11 nM

Cc1cc(-c2ncc(CC(=O)Nc3ccc(-c4cnccn4)cn3)cc2C)ccn1 [WNT-974]
inhibition in vivo at 1 mg/kg [18]: 47% | inhibition in vivo at 3 mg/kg [19]: 63% | IC50 [1]: 1 nM

O=C(CN1CCCC2=C1C(=O)N(C1CC1)C2=O)Nc1ccc(-c2cccnc2)nn1
bioavailability [7]: 81% | solubility [8]: 60 µg/mL (≈ 148 µM)

CCc1ccc(OCC(=O)Nc2sc(C)c(C)c2C(N)=O)c(F)c1
Ki [20]: 27900 nM

O=C1[C@H](Cc2ccc(O)cc2)N2C(=O)CCN(C(=O)NCc3ccccc3)[C@H]2CN1Cc1cccc2ccccc12
IC50 [21]: 3000 nM
